# Data reported in patent publication US6589452B2, “Photochemically controlled photonic crystal diffraction” (University of Pittsburgh, priority 2000, dated 2003).
# Assays:
# Format in all cases: physicochemical
# [1] = water solubility of the azobenzene derivative; settings: compared with non-derivatized azobenzene
# Text: In addition, it retains similar photochemical properties as non-derivatized azobenzene.
# In a particular embodiment of the invention, an azobenzene derivative, which is modified in order to increase its water solubility, is attached to the reactive PCCA through the reaction of the epoxide groups inside the hydrogel with primary amino groups on the azobenzene derivative. See Example 3. Hereinafter, the functionalized PCCA having azobenzene attached thereto is referred to as “AZO-PCCA”. […] For example, spiropyran may be attached to the gel by directly copolymerizing the spiropyran with the acrylamide. The photosensitive components of the present invention may be synthesized by methods well-known in the art.
# [2] = photochemical behavior of a water solution of the azobenzene derivative under UV irradiation; settings: UV 365 nm, 20 mW, monoexponential fit
# Text: In addition, a shoulder arising from the nπ* transition is evident at long wavelength side of the ππ* peak. This peak, due to nπ* transition, at 434 nm becomes dominant when a photostationary state under UV irradiation is reached (mainly cis-azobenzene). The intensity of the nπ* peak increases as the intensity of the ππ* band decreases due to the conversion of trans isomer to cis under UV light (FIG. 1). This is a typical behavior of azobenzene-type molecules. The photochemical behavior of a water solution of the azobenzene derivative of the present invention was determined under UV irradiation (365 nm, 20 mW) and irradiation with visible light ([…], ˜50 mW). Under 488 nm irradiation, the trans-isomer is restored and the photostationary state under visible light is very close to the equilibrium state in dark. When the azobenzene derivative was exposed to 365 nm irradiation, kinetic data fitted well to monoexponential function with the characteristic time of ˜40 seconds. In addition, thermal relaxation in dark follows monoexponential function with characteristic time of about 10 days at 24° C. Furthermore, the photochemical behavior of the azobenzene derivative of the present invention when covalently attached to the functionalized PCCA of the present invention was close to that of the azobenzene derivative in solution. […]
# [3] = thermal relaxation in the dark (cis-trans azobenzene isomerization); settings: azobenzene derivative in solution; 24° C.; monoexponential
# Method: FIG. 3 is a graph showing the characteristic time for UV irradiation and thermal relaxation of the AZO-PCCA. The characteristic time for UV irradiation (trans-cis azobenzene isomerization), which was performed at 365 nm, 10 mW, is ˜50 seconds (curve 1 and 2). The response time of the PCCA diffraction shift could be reduced by increasing the actinic light power. In addition, the characteristic time for thermal relaxation (cis-trans azobenzene isomerization), which was performed by placing the AZO-PCCA in the dark, is ˜10 days (curve 3 and 4).
# In addition, a shoulder arising from the nπ* transition is evident at long wavelength side of the ππ* peak. This peak, due to nπ* transition, at 434 nm becomes dominant when a photostationary state under UV irradiation is reached (mainly cis-azobenzene). The intensity of the nπ* peak increases as the intensity of the ππ* band decreases due to the conversion of trans isomer to cis under UV light (FIG. 1). This is a typical behavior of azobenzene-type molecules. The photochemical behavior of a water solution of the azobenzene derivative of the present invention was determined under UV irradiation (365 nm, 20 mW) and irradiation with visible light ([…], ˜50 mW). Under 488 nm irradiation, the trans-isomer is restored and the photostationary state under visible light is very close to the equilibrium state in dark. […]
compound,measurement,setting,value
"NCc1ccc(N=Nc2ccc(OCC(O)CO)cc2)cc1 (stereo not drawn) [azobenzene derivative, 4-N-aminomethylbenzolazo-4-phenoxy glycerol ether]",water solubility,[1],improved water solubility
same,"characteristic time, 365 nm irradiation (trans-cis)",[2],~40 s
same,characteristic time of thermal relaxation in dark,[3],about 10 days
